How the values were obtained:
NLRP3 [1] = molecular target: T1, NLRP3 (Homo sapiens, UniProt Q96P20); assay: Human whole blood IL1β release assay; format: cell-based; details: LPS 1 μg/ml, nigericin 10 μM, IL-1β AlphaLisa, 10 μM top dose (Example 2: top dose of 30 μM), read-out: HWB IC50
Procedure, shortened: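 Healthy-donor heparinised human whole blood with 1 μg/ml LPS, compound (8-point half-log dilution, 10 μM top dose unless stated; 0.1% DMSO vehicle) for 3 h at 37 °C, then nigericin 10 μM final for 1 h. Supernatant IL-1β by AlphaLISA; IC50 from 4-parameter variable-slope fit.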

[2] = PK, intravenous administration; format: in vivo; details: rat, plasma, male Sprague Dawley rats, dose about 1 mg/kg; for Vd: read-out: Vdss
Experimental: Pharmacokinetic parameters were determined in male Sprague Dawley rats (Vital River Laboratory Animal Technology Co Ltd, Beijing, China, 6-9 weeks old). Animals were maintained under a 12 h light/dark cycle. Animals had free access to food and water, except that orally dosed animals were food deprived overnight prior to the study.
For intravenous administration, compounds were formulated as a solution (in DMSO:water [10:90] or in DMSO:PBS [10:90]) in 2 mL/kg dosing volume and administered via tail vein. For oral administration, compounds were formulated as a solution (in 0.5% methylcellulose in water) in […] dosing volume and administered orally.
Serial blood samples (about 200 μL) were taken from each animal at each of 8 time-points post dose ([…], 0.25, 0.5, 1, 2, 4, 8 and 24 h). Samples were held on ice for no longer than 30 minutes before centrifugation (5,696 rpm (3,000 g) for 15 minutes) for plasma generation. Plasma was frozen on dry ice prior to bioanalysis. PK parameters were generated from LC-MS/MS data using Phoenix WinNonlin 6.3 software.

NLRP3 [3] = molecular target: T1, NLRP3; assay: THP-1 cells pyroptosis assay; format: cell-based; parameters: Seed THP-1 cells (25,000 cells/well) containing 1.0 μg/ml LPS; host or cells: THP-1; details: LPS 1.0 μg/ml, nigericin 5 μM, resazurin readout, 10 μM top dose (Example 2: top dose of 30 μM)
Procedure, shortened: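 Pyroptosis induced by 5 μM nigericin (1 h) in LPS-primed (1 μg/ml) THP-1 cells, 25,000/well in serum-free RPMI, after 3 h compound pre-treatment (8 points, 10 μM top unless stated). Surviving cells measured with 100 μM resazurin, Ex 560/Em 590; IC50 via variable-slope 4-parameter regression.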

T1 sequence (Q96P20 whole entry): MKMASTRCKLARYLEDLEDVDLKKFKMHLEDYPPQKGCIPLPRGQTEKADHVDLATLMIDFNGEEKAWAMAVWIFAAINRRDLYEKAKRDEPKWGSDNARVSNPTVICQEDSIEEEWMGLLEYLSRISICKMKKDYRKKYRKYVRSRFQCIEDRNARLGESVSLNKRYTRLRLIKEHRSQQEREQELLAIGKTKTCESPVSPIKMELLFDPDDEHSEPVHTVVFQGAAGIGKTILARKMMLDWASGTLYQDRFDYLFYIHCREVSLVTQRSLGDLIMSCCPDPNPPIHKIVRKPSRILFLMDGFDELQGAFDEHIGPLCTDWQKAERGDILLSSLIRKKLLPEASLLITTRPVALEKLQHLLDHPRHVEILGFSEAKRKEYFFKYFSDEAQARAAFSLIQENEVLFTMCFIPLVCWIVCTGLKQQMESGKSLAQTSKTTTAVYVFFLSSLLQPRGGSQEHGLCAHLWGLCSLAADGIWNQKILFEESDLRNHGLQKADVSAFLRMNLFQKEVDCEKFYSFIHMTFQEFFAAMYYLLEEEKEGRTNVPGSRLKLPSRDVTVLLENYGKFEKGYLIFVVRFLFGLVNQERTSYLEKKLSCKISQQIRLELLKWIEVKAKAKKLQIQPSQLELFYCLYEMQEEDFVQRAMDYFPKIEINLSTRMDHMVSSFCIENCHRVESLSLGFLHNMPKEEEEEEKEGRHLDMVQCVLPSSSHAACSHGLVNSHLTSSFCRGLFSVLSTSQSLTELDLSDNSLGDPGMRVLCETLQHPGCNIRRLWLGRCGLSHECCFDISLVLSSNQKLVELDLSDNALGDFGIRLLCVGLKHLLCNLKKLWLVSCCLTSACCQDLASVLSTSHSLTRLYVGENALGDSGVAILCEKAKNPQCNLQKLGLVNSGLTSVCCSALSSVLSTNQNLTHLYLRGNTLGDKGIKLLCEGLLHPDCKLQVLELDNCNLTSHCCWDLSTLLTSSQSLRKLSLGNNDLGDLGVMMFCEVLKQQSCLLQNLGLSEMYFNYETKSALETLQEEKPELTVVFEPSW

Row | SMILES | IC50 (NLRP3 [1]) | AUC [2] | clearance [2] | half-life [2] | Vd [2] | IC50 (NLRP3 [3])
1 | CC(C)c1cc(F)cc(C(C)C)c1Nc1nnc(S(=O)(=O)N2CCC3(CCCN3C)CC2)[nH]1 [Example 247, N-(4-fluoro-2,6-diisopropylphenyl)-5-((i-methyl-1,8-diazaspiro[4.5]decan-8-yl)sulfonyl)-4H-1,2,4-triazol-3-amine] | ≤ 500 nM | 253 ng·h/mL | 72.5 mL/min/kg | 163 min | 12.7 L/kg | ≤ 500 nM
2 | CNC1CCN(S(=O)(=O)c2nnc(Nc3c4c(cc5c3CCC5)CCC4)[nH]2)CC1 [Example 130, 1-((5-((1,2,3,5,6,7-hexahydro-s-indacen-4-yl)amino)-4H-1,2,4-triazol-3-yl)sulfonyl)-N-methylpiperidin-4-amine] | ≤ 5000 nM | 509 ng·h/mL | 32.8 mL/min/kg | 468 min | 10.6 L/kg | ≤ 1000 nM
3 | COc1cc(-c2cc(F)cc(C(C)C)c2Nc2nnc(S(=O)(=O)N3CCC(CN(C)C)C3)[nH]2)ccn1 (stereo not drawn) [Example 259, 5-((3-((dimethylamino)methyl)pyrrolidin-1-yl)sulfonyl)-N-(4-fluoro-2-isopropyl-6-(2-methoxypyridin-4-yl)phenyl)-4H-1,2,4-triazol-3-amine] | ≤ 1000 nM | 169 ng·h/mL | 90.1 mL/min/kg | 134 min | 9.57 L/kg | ≤ 500 nM
4 | O=S(=O)(c1nnc(Nc2c3c(cc4c2CCC4)CCC3)[nH]1)N1CC2(CCN(C3CC3)C2)C1 [Example 245, 5-((6-cyclopropyl-2,6-diazaspiro[3.4]octan-2-yl)sulfonyl)-N-(1,2,3,5,6,7-hexahydro-s-indacen-4-yl)-4H-1,2,4-triazol-3-amine] | ≤ 5000 nM | 393 ng·h/mL | 49.6 mL/min/kg | 44.4 min | 1.63 L/kg | ≤ 500 nM
5 | CC(C)c1cc(F)cc(-c2ccncc2)c1Cc1nnc(S(=O)(=O)N2CCC(CN(C)C)C2)[nH]1 (stereo not drawn) [Example 153, 1-(1-((5-(4-fluoro-2-isopropyl-6-(pyridin-4-yl)benzyl)-4H-1,2,4-triazol-3-yl)sulfonyl)pyrrolidin-3-yl)-N,N-dimethylmethanamine] | ≤ 5000 nM | 198 ng·h/mL | 84.1 mL/min/kg | 21.6 min | 2.66 L/kg | ≤ 500 nM
6 | CN(C)CC1CCN(S(=O)(=O)c2nnc(Nc3c4c(cc5c3CCC5)CCC4)[nH]2)C1 (stereo not drawn) [Example 119, 5-((3-((dimethylamino)methyl)pyrrolidin-1-yl)sulfonyl)-N-(1,2,3,5,6,7-hexahydro-s-indacen-4-yl)-4H-1,2,4-triazol-3-amine] | ≤ 500 nM | 162 ng·h/mL | 106 mL/min/kg | 156 min | 10.1 L/kg | ≤ 500 nM
7 | CC(C)N1CCC2(C1)CN(S(=O)(=O)c1nnc(Nc3c4c(cc5c3CCC5)CCC4)[nH]1)C2 [Example 264, N-(1,2,3,5,6,7-hexahydro-s-indacen-4-yl)-5-((6-isopropyl-2,6-diazaspiro[3.4]octan-2-yl)sulfonyl)-4H-1,2,4-triazol-3-amine] | ≤ 500 nM | 280 ng·h/mL | 59.6 mL/min/kg | 113 min | 5.78 L/kg | ≤ 500 nM
8 | CN(C)CCCS(=O)(=O)c1nnc(Nc2c3c(cc4c2CCC4)CCC3)[nH]1 [Example 48, 5-((3-(Dimethylamino)propyl)sulfonyl)-N-(1,2,3,5,6,7-hexahydro-s-indacen-4-yl)-4H-1,2,4-triazol-3-amine] | ≤ 500 nM | 196 ng·h/mL | 85 mL/min/kg | 48 min | 3.69 L/kg | ≤ 500 nM
9 | CN1CCCC1CCS(=O)(=O)c1nnc(Nc2c3c(cc4c2CCC4)CCC3)[nH]1 (stereo not drawn) [Example 60, N-(1,2,3,5,6,7-hexahydro-s-indacen-4-yl)-3-((2-(1-methylpyrrolidin-2-yl)ethyl)sulfonyl)-1H-1,2,4-triazol-5-amine] | ≤ 5000 nM | 278 ng·h/mL | 60 mL/min/kg | 60 min | 3.24 L/kg | ≤ 1000 nM
10 | O=S(=O)(NCCN1CCC1)c1nnc(Nc2c3c(cc4c2CCC4)CCC3)[nH]1 [Example 89, N-(2-(azetidin-1-yl)ethyl)-5-((1,2,3,5,6,7-hexahydro-s-indacen-4-yl)amino)-4H-1,2,4-triazole-3-sulfonamide] | ≤ 5000 nM |  |  |  |  | ≤ 1000 nM
11 | CN(C)CCCNS(=O)(=O)c1nnc(Nc2c3c(cc4c2CCC4)CCC3)[nH]1 [Example 125, N-(3-(dimethylamino)propyl)-5-((1,2,3,5,6,7-hexahydro-s-indacen-4-yl)amino)-4H-1,2,4-triazole-3-sulfonamide] | ≤ 5000 nM |  |  |  |  | ≤ 500 nM
12 | CN1CC2CN(S(=O)(=O)c3nnc(Nc4c5c(cc6c4CCC6)CCC5)[nH]3)CC2C1 (stereo not drawn) [Example 138, N-(1,2,3,5,6,7-hexahydro-s-indacen-4-yl)-5-((5-methylhexahydropyrrolo[3,4-c]pyrrol-2 (1H)-yl)sulfonyl)-4H-1,2,4-triazol-3-amine] | ≤ 5000 nM |  |  |  |  | ≤ 5000 nM

The next lines start with the values.

Row | IC50 (NLRP3 [1]) | AUC [2] | clearance [2] | half-life [2] | Vd [2] | IC50 (NLRP3 [3]) | SMILES
13 | ≤ 1000 nM | 216 ng·h/mL | 77.2 mL/min/kg | 46.8 min | 1.48 L/kg | ≤ 500 nM | COc1cc(-c2ccc3c(c2Nc2nnc(S(=O)(=O)N4CCC(N(C)C)CC4)[nH]2)CCO3)ccn1 [Example 226, 1-((5-((5-(2-methoxypyridin-4-yl)-2,3-dihydrobenzofuran-4-yl)amino)-4H-1,2,4-triazol-3-yl)sulfonyl)-N,N-dimethylpiperidin-4-amine]
14 | ≤ 500 nM | 58 ng·h/mL | 121 mL/min/kg | 31.2 min | 2.86 L/kg | ≤ 500 nM | COc1cc(-c2ccc3c(c2Nc2nnc(S(=O)(=O)N4CC5(CCN(C)C5)C4)[nH]2)CCC3)ccn1 [Example 215, N-(5-(2-methoxypyridin-4-yl)-2,3-dihydro-1H-inden-4-yl)-5-((6-methyl-2,6-diazaspiro[3.4]octan-2-yl)sulfonyl)-4H-1,2,4-triazol-3-amine]
15 | ≤ 10000 nM | 814 ng·h/mL | 19.1 mL/min/kg | 28.4 min | 0.41 L/kg | ≤ 1000 nM | Cn1ccc(S(=O)(=O)c2nnc(Nc3c4c(cc5c3CCC5)CCC4)[nH]2)n1 [Example 176, N-(1,2,3,5,6,7-hexahydro-s-indacen-4-yl)-5-((1-methyl-1H-pyrazol-3-yl)sulfonyl)-4H-1,2,4-triazol-3-amine]
16 | ≤ 1000 nM |  |  |  |  | ≤ 500 nM | [2H]C([2H])([2H])Oc1cc(-c2ccc3c(c2Nc2nnc(S(=O)(=O)N4CC[C@H](C(C)(C)O)C4)[nH]2)CCO3)ccn1 [Example 343, (S)-2-(1-((5-((5-(2-(methoxy-d3)pyridin-4-yl)-2,3-dihydrobenzofuran-4-yl)amino)-4H-1,2,4-triazol-3-yl)sulfonyl)pyrrolidin-3-yl)propan-2-ol]
17 | ≤ 5000 nM |  |  |  |  | ≤ 500 nM | Cc1cc2c(c(Nc3nnc(S(=O)(=O)c4ccccc4)[nH]3)c1-c1ccnc(OC3CCOCC3)c1)CCC2 [Example 370, N-(6-methyl-5-(2-((tetrahydro-2H-pyran-4-yl)oxy)pyridin-4-yl)-2,3-dihydro-1H-inden-4-yl)-5-(phenylsulfonyl)-4H-1,2,4-triazol-3-amine]
18 | ≤ 5000 nM |  |  |  |  | ≤ 1000 nM | O=S(=O)(c1nnc(Nc2c3c(cc4c2CCC4)CCC3)[nH]1)N1CC2(CCOCC2)C1 [Example 145, 5-(7-oxa-2-azaspiro[35]nonan-2-ylsulfonyl)-N-(1,2,3,5,6,7-hexahydro-s-indacen-4-yl)-4H-1,2,4-triazol-3-amine]
